A word on the inhibition: it is the drop in the measured response relative to a control, in per cent.

This note sets out measurements from US10287265B2, “Enantiomers of 8-hydroxyquinoline derivatives and the synthesis thereof” (AVIDIN Co. Ltd., priority 2015, dated 2019).

For one test, the target named is T1, Human 5-lipoxygenase (Homo sapiens, UniProt P09917).
T1 construct: host or cells: Sf9 cells
T1 sequence (P09917 1-674): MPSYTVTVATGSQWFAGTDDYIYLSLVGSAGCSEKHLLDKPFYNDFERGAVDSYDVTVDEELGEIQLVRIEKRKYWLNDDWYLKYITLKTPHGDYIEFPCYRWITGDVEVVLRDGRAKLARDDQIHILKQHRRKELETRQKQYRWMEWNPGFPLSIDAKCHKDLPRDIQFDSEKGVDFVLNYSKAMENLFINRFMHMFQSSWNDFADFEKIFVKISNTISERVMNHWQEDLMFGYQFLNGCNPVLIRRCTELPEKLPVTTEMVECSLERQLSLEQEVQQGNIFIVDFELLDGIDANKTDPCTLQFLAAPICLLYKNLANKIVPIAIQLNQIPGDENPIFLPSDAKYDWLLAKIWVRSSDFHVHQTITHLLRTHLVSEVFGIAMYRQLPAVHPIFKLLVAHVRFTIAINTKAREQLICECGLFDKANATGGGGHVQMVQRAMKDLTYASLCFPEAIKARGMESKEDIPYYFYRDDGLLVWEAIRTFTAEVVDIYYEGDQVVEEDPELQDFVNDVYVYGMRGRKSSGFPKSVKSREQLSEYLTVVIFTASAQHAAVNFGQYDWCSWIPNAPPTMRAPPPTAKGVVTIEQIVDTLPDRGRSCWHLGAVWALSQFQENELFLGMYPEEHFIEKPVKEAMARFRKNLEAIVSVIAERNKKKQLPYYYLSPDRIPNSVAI
Put plainly: 5-lipoxygenase enzyme activity, fluorescence measurement. It counts as biochemical. The method, then: Human 5-lipoxygenase produced by Sf9 cells was used throughout the experiments. The enzyme was pre-incubated with 10 μM compound according to Example 2 at room temperature, then—after the addition of 25 μM arachidonic acid substrate—the amount of generated rhodamine 123 was determined by fluorescence measurement. Percentage of inhibition rate was calculated by comparison to untreated control reactions.

The test system of test [1] is NF-AT (Nuclear Factor of Activated T Cells) protein. The experiment in a line: NF-AT transcriptional activity, β-galactosidase reporter in Jurkat cells induced by A23187 and PMA. It counts as cell-based, human. The method, then: Cells (3×10^6 cells/ml) were incubated with 10 μM compound according to Example 2 in RPMI-1640 medium (pH=7.4) for 20 min at 37° C. Following this, incubation lasted for an additional 4 h in the presence of 0.5 μM A23187 and 50 ng/ml PMA (12-O-tetradecanoylphorbol-13-acetate). Induced effects can be determined by the β-galactosidase activity of cells treated with the compound according to Example 2 and untreated cells as it catalyzes the transformation of FDG (fluorescein di-β-D-galactopyranoside) into fluorescein. Reading of results was carried out with a SpectraFluor Plus plate reader. Decrease of β-galactosidase activity was compared to the effect of 1 μM cyclosporine A which was served as a positive control.

Take `Cc1ccnc(N[C@H](c2ccc(C(F)(F)F)cc2)c2ccc3cccnc3c2O)n1` [Example 2, 7-[(R)-[(4-Methylpyrimidin-2-yl)amino][4-(trifluoromethyl)phenyl]methyl]quinolin-8-ol]: on Human 5-lipoxygenase, the “inhibition of 5-lipoxygenase enzyme (concentration range in words)” value was “inhibits in micromolar concentration”. Besides, the inhibition at 10 µM at Human 5-lipoxygenase (10 μM concentration, 25 μM arachidonic acid substrate) was determined as 54%. Also, the “inhibition of transcriptional induction regulated by NF-AT (concentration range in words)” value in test [1] is “inhibits in micromolar concentration”. In test [1] (Homo sapiens, Jurkat cells, 0.5 μM A23187 and 50 ng/ml PMA, 4 h, read-out: half-value concentration for reduction of the transcriptional activity of NF-AT protein), the IC50 was determined as 2200 nM.
